Results as given in publication PMC5048394, “Development and substrate specificity screening of an in vivo biosensor for the detection of biomass derived aromatic chemical building blocks” (Chemical Communications (Cambridge, England), 2016).
Where two headings read alike, the source gives them in different places.

Assays:
PPC biosensor [1] = test: PPC biosensor eGFP expression in E. coli K strain (DH10B, Top10F'); type: cell-based
Description: (§1) Cells were centrifuged, washed and re-suspended with PBS buffer. The expression output was then analyzed by monitoring the fluorescence normalised to cell density (RFU/OD600) in a multimode plate reader (Methods, ESI ^†).
(§2) The sequences containing the PLC, PPC and PferB promoters, a RBS, and a Hexa-Histidine tag, flanked by SphI/NdeI were synthetized (GeneART, ThermoFisher). The sequences were enzyme restricted with SphI/NdeI and cloned in pET44eGFP,2 upstream to the eGFP gene, replacing the T7 promoter region generating respectively, the pET44PLCeGFP, pET44PPCeGFP and pET44PferBeGFP vectors.
(§3) The FerCA DNA sequence containing the ferA and ferC genes, individually flanked by a PLacI promoter and an rrn_B1 terminator, was synthetized by GeneARTTM (ThermoFisher).
(§4) The construct was cloned in a p15 plasmid flanked by NaeI/KasI restriction sites generating […]
(§5) the p15FerCA vector. […]
(§6) Biosensors Performance and Screening Methods
(§7) Reporter controls and the biosensor systems PLC, PPC and PferB were respectively generated by transformation of pET44PLCeGFP, pET44PPCeGFP and pET44PFerBeGFP vectors alone or with p15FerCA in BL21 and DH10B chemically competent E. coli cells. A single colony of each system was grown in LB media supplemented with antibiotics at 37 °C with shaking at 180rpm for 16 hours. Cultures were diluted (1:100) in fresh LB media with appropriate antibiotics, re-incubated at 37 °C with shaking until OD ~0.6 and transferred (450 μL) to multi- […]
(§8) μM and 1000 μM. Induction plates were incubated at 37 °C, with shaking at 1000 RPM (Stuart microtitre plate shaker incubator) for 3 hours. Cells were harvested by centrifugation, washed twice and re-suspended with PBS buffer. Expression output was analyzed by monitoring the fluorescence normalised to cell density (RFU/OD) in a multimode plate reader. […]
(§9) Data Processing and Curve Fitting
(§10) Biosensor signal output (eGFP expression) was measured as Relative Fluorescence Units (RFU) and normalised to cell density (OD600). The background auto-fluorescence of E. coli was subtracted from RFU/OD and was normalised (%) to the pLC biosensor response curve to ferulic acid for each experiment. The normalised data was plotted and fitted with a dose-response curve using the Levenberg Marquardt logistic growth/sigmoidal algorithm, using the Origin 2015 (OriginLab, Northampton MA USA) program. The biomass screening data was […]

PPC biosensor [2] = test: PPC biosensor eGFP expression (RFU/OD600) in E. coli BL21; type: cell-based
Description: as §1, §2, §3, §4, §5, §6, §7, §8, §9, §10

PLC biosensor [3] = test: PLC biosensor eGFP expression in E. coli K strain (DH10B, Top10F'); type: cell-based
Description: as §1, §2, §3, §4, §5, §6, §7, §8, §9, §10

PferB biosensor [4] = test: PferB biosensor eGFP expression (RFU/OD600) in E. coli BL21; type: cell-based
Description: as §1, §2, §3, §4, §5, §6, §7, §8, §9, §10

PLC biosensor [5] = test: microbe, parasite or virus in culture; type: cell-based, E. coli BL21
Description: as §1, §2, §3, §4, §5, §6, §7, §8
Compounds for screening were selected using cinnamic acid as a reference structure. The 58 selected compounds were tested with the PLC biosensor in E. coli BL21 cells. The substrate screening assays were performed using concentrations ranging from 0.32 μM to 1000 μM, as described for Ferulic acid. […]
as §9, §10

[6] = test system: ferA knock-out (AKO) PLC and PferB systems; test: FerA knock-out (AKO) system FA induction assay; type: cell-based; conditions: ferA knock-out (AKO) strains, E. coli BL21
From the text: as §2, §3
The construct was cloned in a p15 plasmid flanked by NaeI/KasI restriction sites generating the p15FerCA vector. The ferA gene was removed by restriction digestion of two XbaI flanking sites. The remaining backbone with ferC was re-circularized to originate the p15FerC vector, and the obtained plasmid was sequenced to confirm identity.
as §6
Reporter controls and the biosensor systems PLC, PPC and PferB were respectively generated by transformation of pET44PLCeGFP, pET44PPCeGFP and pET44PFerBeGFP vectors alone or with p15FerCA in BL21 and DH10B chemically competent E. coli cells. […] Expression output was analyzed by monitoring the fluorescence normalised to cell density (RFU/OD) in a multimode plate reader. […]

PferB biosensor [7] = test: PferB biosensor eGFP expression in E. coli K strain (DH10B, Top10F'); type: cell-based
Description: as §1, §2, §3, §4, §5, §6, §7, §8, §9, §10

[8] = ferulic acid dose response, PPC biosensor, Top10F' (DH10B)
[9] = ferulic acid dose response, PPC biosensor, E. coli BL21
[10] = PLC biosensor, E. coli K strain (DH10B)
[11] = ferulic acid dose response, PLC biosensor, Top10F' (DH10B)
[12] = ferulic acid dose response, PferB biosensor, E. coli BL21
[13] = Escherichia coli, BL21, ferulic acid dose response, PLC biosensor, E. coli BL21
[14] = Escherichia coli, BL21, substrate screening, PLC biosensor, E. coli BL21
[15] = ferulic acid, PLC biosensor, E. coli BL21, text
[16] = ferulic acid dose response, PferB biosensor, Top10F' (DH10B)

COc1cc(/C=C/C(=O)O)ccc1O [compound 1, trans-Ferulic acid] was tested, and the EC50 (PPC biosensor [1]; Escherichia coli) was 10.4 µM, the EC90 (PPC biosensor [1]; Escherichia coli) was 33.3 µM and the De-repression (PPC biosensor [1]; PPC biosensor, E. coli K strain (DH10B)) was “complete de-repression”. The EC10 (PPC biosensor [1]; [8]) was 3.3 µM, the “Ebasal (fitting curve)” value (PPC biosensor [1]; [8]) was 4.7 RFU/OD and the “Emax (fitting curve)” value (PPC biosensor [1]; [8]) was 44.7 RFU/OD. The “Sensing range (EC90/EC10)” value (PPC biosensor [1]; [8]) was 10.2, the “Signal range (max/min)” value (PPC biosensor [1]; [8]) was 12.4 and the “p (fitting curve)” value (PPC biosensor [1]; [8]) was 1.9. For the same molecule, the EC50 (PPC biosensor [2]; Escherichia coli, BL21) was 11.2 ± 1.1 µM, the EC90 (PPC biosensor [2]; Escherichia coli, BL21) was 38 µM and the “Concentration for complete de-repression” value (PPC biosensor [2]; [9]) was ≥ 40 µM. The EC10 (PPC biosensor [2]; [9]) was 3.3 µM, the “Ebasal (fitting curve)” value (PPC biosensor [2]; [9]) was 4.2 RFU/OD and the “Emax (fitting curve)” value (PPC biosensor [2]; [9]) was 46.6 RFU/OD. For the same molecule, the “Sensing range (EC90/EC10)” value (PPC biosensor [2]; [9]) was 11.5, the “Signal range (max/min)” value (PPC biosensor [2]; [9]) was 10.4 and the “p (fitting curve)” value (PPC biosensor [2]; [9]) was 1.8. The EC50 (PLC biosensor [3]; Escherichia coli) was 22.8 ± 5.2 µM, the EC90 (PLC biosensor [3]; Escherichia coli) was 83 µM and the De-repression (PLC biosensor [3]; [10]) was “incomplete de-repression”. The Relative signal range (PLC biosensor [3]; [10]) was ~19 fold, the “Sensing range (EC90/EC10)” value (PLC biosensor [3]; [10]) was 13 fold and the EC10 (PLC biosensor [3]; [11]) was 6.3 µM. For the same molecule, the “Ebasal (fitting curve)” value (PLC biosensor [3]; [11]) was 6.1 RFU/OD, the “Emax (fitting curve)” value (PLC biosensor [3]; [11]) was 100.0 RFU/OD and the “Sensing range (EC90/EC10)” value (PLC biosensor [3]; [11]) was 13.3. The “Signal range (max/min)” value (PLC biosensor [3]; [11]) was 19.2, the “p (fitting curve)” value (PLC biosensor [3]; [11]) was 1.7 and the EC50 (PferB biosensor [4]; Escherichia coli, BL21) was 60.5 ± 2.3 µM. The EC90 (PferB biosensor [4]; Escherichia coli, BL21) was 191 µM, the EC10 (PferB biosensor [4]; [12]) was 19.2 µM and the “Ebasal (fitting curve)” value (PferB biosensor [4]; [12]) was 3.7 RFU/OD. For the same molecule, the “Emax (fitting curve)” value (PferB biosensor [4]; [12]) was 17.0 RFU/OD, the “Sensing range (EC90/EC10)” value (PferB biosensor [4]; [12]) was 9.9 and the “Signal range (max/min)” value (PferB biosensor [4]; [12]) was 5.0. For the same molecule, the “p (fitting curve)” value (PferB biosensor [4]; [12]) was 1.9, the De-repression (PferB biosensor [4]; ferulic acid, PferB biosensor, E. coli BL21) was “effectively de-repressed” and the EC10 (PLC biosensor [5]; [13]) was 5.6 µM. The EC50 (PLC biosensor [5]; [13]) was 20.9 ± 4.2 µM, the EC90 (PLC biosensor [5]; [13]) was 77.4 µM and the Emax (PLC biosensor [5]; Escherichia coli, BL21, read-out: Induction) was > 70%. The maximal fold induction (PLC biosensor [5]; Escherichia coli, BL21, read-out: Signal range (max/min), ferulic acid dose response, PLC biosensor, E. coli BL21) was 22.8, the maximal fold induction (PLC biosensor [5]; Escherichia coli, BL21, read-out: Signal range (max/min), substrate screening, PLC biosensor, E. coli BL21) was 26.2 and the EC10 (PLC biosensor [5]; [14]) was 3.9 µM. The EC50 (PLC biosensor [5]; [14]) was 15.3 ± 0.9 µM, the EC90 (PLC biosensor [5]; [14]) was 59.5 µM and the Saturation concentration (PLC biosensor [5]; ferulic acid dose response, PLC biosensor, E. coli BL21) was ≥ 100 µM. For the same molecule, the “De-repression (incomplete), % of the PLC reporter” value (PLC biosensor [5]; ferulic acid, PLC biosensor, E. coli BL21) was ~85%, the Sensing range (PLC biosensor [5]; [15]) was 13 fold and the Signal range (PLC biosensor [5]; [15]) was ~23 fold. For the same molecule, the Induction (PLC biosensor [5]; substrate screening, PLC biosensor, E. coli BL21, 0.32–1000 μM) was “H (high output signals, and hence good efficacy (>70%))”, the Signal read-out range (PLC biosensor [5]; substrate screening, PLC biosensor, E. coli BL21, text) was > 25 fold and the “De-repression phenotype upon addition to growth media” value [6] was “lacked the de-repression phenotype”. The EC50 (PferB biosensor [7]; Escherichia coli) was 79.6 µM, the EC90 (PferB biosensor [7]; Escherichia coli) was 276 µM and the De-repression (PferB biosensor [7]; PferB biosensor, E. coli K strain (DH10B)) was “complete de-repression”. For the same molecule, the EC10 (PferB biosensor [7]; [16]) was 22.9 µM, the “Ebasal (fitting curve)” value (PferB biosensor [7]; [16]) was 4.3 RFU/OD and the “Emax (fitting curve)” value (PferB biosensor [7]; [16]) was 20.5 RFU/OD. The “Sensing range (EC90/EC10)” value (PferB biosensor [7]; [16]) was 12.0, the “Signal range (max/min)” value (PferB biosensor [7]; [16]) was 4.7 and the “p (fitting curve)” value (PferB biosensor [7]; [16]) was 1.8.
